In patent US20110027354A1, “ANTI-PA[…]” (priority 2008, published 2011):
“Also recorded” adds a separate entry of the source.

Key:
phospho-Akt = assay: Phosphorylation of Akt at Ser473 (western blot); format: in vivo, mice; settings: striatum; for effect on MPTP-induced decrease in phospho-Akt: vs. MPTP alone
Procedure: (§1) The western blot assays were performed as described previously (thong et al., 1997). Tissues were homogenized in lysis buffer, containing 200 mM Tris HCl (pH 6.8), 1% SDS, 5 mM ethylene glycol tetraacetic acid, 5 mM ethylenediaminetetraacetic acid, 10% glycerol, 1× phosphatase inhibitor cocktail I, 1× protease inhibitor cocktail. The supernatant fraction was subsequently centrifuged at 30,000×g for 30 min. The resulting pellet was resuspended in the sample buffer. Proteins (20-50 ug/lane) were separated by 6%, 8%, 10% or 15% sodium dodecyl sulfate-polyacrylamide gel electrophoresis and transferred onto the nitrocellulose membranes. Following transfer, the nitrocellulose membranes were preincubated with 5% non-fat milk and incubated overnight at 4° C. with anti-β-actin (Sigma, 1:50000), anti-TH (Chemicon, 1:5000), anti-TH phosphoser19 (Chemicon, 1:5000), anti-TH phosphoser31 (Chemicon, 1:500), anti-TH phosphoser40 (Chemicon, 1:500), anti-F 4/80 (Serotec, 1:500), anti-BDNF (Chemicon, 1:500), anti-GDNF (Santa-Cruz, 1:250), anti-Akt (Cell signaling, 1:1000), anti-phospho Akt ser 473 (Cell signaling, 1:1000), anti-PI3K (Cell signaling, 1:1000), anti-phospho PI3K (Cell signaling, 1:500) and anti-α-synuclein (BD Transduction, 1:500) antibody. After incubation with primary antibody, membranes were incubated with the secondary anti-rabbit IgG, Horseradish Peroxidase (1:1000 dilution, Amersham) or anti-mouse IgG, Horseradish Peroxidase (1:1000, Sigma), or anti-goat IgG, Horseradish Peroxidase (1:1000, Sigma) for 2 h, washed. Subsequently visualized with the Amersham ECL system (Amersham, Arlington Heights, Ill., USA).

[1] = test system: tyrosine hydroxylase (TH); assay: TH-immunoreactivity by immunocytochemistry; format: in vivo, mice; settings: for effect on MPTP-induced decrease of TH-immunoreactivity (TH-IR): immunocytochemistry (ICC), vs. MPTP alone; for TH-immunoreactivity: drug alone (no MPTP)
Procedure: Animals were sacrified at 1 day after MPTP-treatment. They were anesthetized with 60% urethane and perfused transcardially with 200 ml of 50 mM phosphate buffered saline (PBS), followed by 50 ml of paraformaldehyde in PBS. The brain were fixed at 4° C. for 24 h in the same fixative and then cryoprotected in 30% sucrose. The brains were sectioned on a horizontal sliding microstome into 35 μm transverse free-floating sections.
The immunocytochemistry was performed as described previously (Kim et al., 2000a; Kim et al., 2000b). Briefly, prior to incubation with the primary antibodies, sections were preincubated with 0.3% hydrogen peroxide in PBS for 30 min (to block endogenous peroxidase activity), then in PBS containing 0.4% Triton X-100 for 20 min and 1% no: mal serum for 20 min. After a 48 h incubation with the primary antibody at 4° C., sections were incubated with the secondary biotinylated antisera (1:1000 dilution; Vector, Brulingame, Calif.) for 1 h, washed, and immersed in avidin-biotin-peroxidase complex (ABC Elite kit, Vector) for 1 hr. Sections were always washed three times with PBS between each incubation step. 3,3′-Diaminobenzidine (DAB) was used as the chromogen. The quantitative analyses were performed using a computer-based image analysis system (Optimas version 6.2; Neurolucida Program) (Kim et al., 1999).

[2] = test system: dopamine (DA), DOPAC and HVA in the striatum; assay: HPLC analysis of striatal DA, DOPAC and HVA; format: in vivo, mice; settings: for effect on MPTP-induced increase of DA turnover rate / effect on MPTP-induced reduction of DOPAC / effect on MPTP-induced reduction of HVA / effect on MPTP-induced reduction of dopamine (DA): 2.5 mg/kg i.p., vs. MPTP alone; for effect on MPTP-induced reduction of dopamine (DA): 2.5 mg/kg; for levels of DA, DOPAC, HVA: drug alone (no MPTP)
Procedure: At 1 day after last MPTP injections mice were killed by cervical dislocation, the brains were removed and placed on an ice-cooled plate. Striatum was dissected and immediately frozen on dry ice and store at −70° C. until extraction. Brain regions obtained from each animal were weighed, ultrasonicated in 10% perchloric acid containing 10 ng/mg of the internal standard dihydroxybenzilamine, and centrifuged at 20,000 g for 10 min. The levels of DA and its metabolites 3,4-dihydroxyphenylacetic acid (DOPAC) and homovanillic acid (HVA) in brain tissue extracts were determined by HPLC coupled with electrochemical detection as described (Ali et al., 1994). Briefly, striatal tissues were sonicated in 0.2 M perchloric acid (20% W/V) containing the internal standard 3,4-dihydroxybenzylamine (10 mg wet tissue/ml) The homogenate was centrifuged and a 20-μl aliquot of the supernatant was injected into the HPLC equipped with a 3-μm C18 column. The mobile phase was comprised of 26 ml of acetonitrile, 21 ml of tetrahydrofuran and 960 ml of 0.15 M monochloroacetic acid (pH 3.0) containing 50 mg/l of EDTA and 200 mg/l of sodium octyl sulfate. The amount of DA, DOPAC and HVA were determined by comparison of peak height ratio of tissue sample with standards, and were expressed in nanograms per gram of wet weight of tissue.

[3] = test system: F4/80, a marker of reactive microglia; assay: F4/80 expression (western blot); format: in vivo, mice; settings: striatum; pre-treatment; vs. MPTP alone
Procedure: as §1, with “After incubation with primary antibody, membranes were incubated with the secondary anti-rabbit IgG, Horseradish Peroxidase (1:1000 dilution, Amersham) or anti-mouse IgG, Horseradish Peroxidase (1:1000, Sigma), or anti-goat IgG, Horseradish Peroxidase (1:1000, Sigma) for 2 h, washed. Subsequently visualized with the Amersham ECL system (Amersham, Arlington Heights, Ill., USA).” left out

MPTP-treated mice = assay: MPTP-induced hypolocomotion (locomotor activity); format: in vivo; settings: for effect on MPTP-induced hypolocomotor activity: 2.5 mg/kg/i.p./day×9, vs. MPTP alone
Procedure: Locomotor activity measured for 30 min one day after the last MPTP administration using an automated video-tracking system (Noldus Information Technology, Wagenin, The Netherlands). Eight test boxes (40×40×30 cm high) were operated simultaneously by an IBM computer. Animals were studied individually during locomotion in each test box, where they were adapted for 5 min before starting the experiment. […] The distance traveled in cm by the animals in horizontal locomotor activity was analyzed. Data were collected and analyzed between 09:00 and 17:00 h (Kim et al., 2001).

[4] = test system: tyrosine hydroxylase (TH); assay: TH activity; format: in vivo, mice; settings: for TH activity: drug alone (no MPTP); for effect on MPTP-induced decrease of TH activity: one day after final MPTP, vs. MPTP alone

SMILES | effect on MPTP-induced decrease in phospho-Akt (phospho-Akt) | attenuation of phospho-Akt decrease compared with selegiline (phospho-Akt; vs. selegiline+MPTP) | effect on MPTP-induced decrease of TH-immunoreactivity (TH-IR) ([1]; SN) | TH-immunoreactivity [1] | attenuation of TH-IR decrease compared with selegiline ([1]; striatum and SN, ICC, vs. selegiline+MPTP) | effect on MPTP-induced decrease of TH-immunoreactivity (TH-IR) ([1]; striatum) | effect on MPTP-induced increase of DA turnover rate [2] | effect on MPTP-induced reduction of DOPAC [2] | effect on MPTP-induced reduction of HVA [2] | effect on MPTP-induced reduction of dopamine (DA) [2] | levels of DA, DOPAC, HVA [2] | attenuation for DA level compared with selegiline ([2]; vs. selegiline+MPTP) | attenuation of DA turnover rate increase compared with selegiline ([2]; vs. selegiline+MPTP) | effect on MPTP-induced increase in F4/80-immunoreactivity [3] | attenuation of MPTP-induced hypolocomotor activity compared with selegiline (MPTP-treated mice; 2.5 mg/kg i.p., vs. selegiline+MPTP) | effect on MPTP-induced hypolocomotor activity (MPTP-treated mice) | TH activity [4] | attenuation of TH activity decrease compared with selegiline ([4]; striatum and SN, vs. selegiline+MPTP) | effect on MPTP-induced decrease of TH activity ([4]; striatum) | effect on MPTP-induced decrease of TH activity ([4]; substantia nigra (SN))
C#CCN(C)CCc1ccccc1 [MPPE, N-methyl-N-propynyl-2-phenylethylamine] | significantly attenuated | more pronounced in MPPE-treated mice | significantly attenuated | did not show any significant effect | more evident | attenuated | attenuated | attenuated | attenuated | significantly attenuated | did not show any significant effect | more pronounced in the MPPE-treated mice | more evident than by selegiline | significantly blocked increase in F4/80-immunoreactivity induced by MPTP; also recorded: attenuated | more pronounced in the MPPE-pretreated mice than selegiline-pretreated case | significantly attenuated | did not show any significant effect | more effective | attenuated | attenuated
C#CCN(C)[C@H](C)Cc1ccccc1 [selegiline, reference compound] | significantly attenuated |  | significantly attenuated | did not show any significant effect |  | attenuated | attenuated | attenuated | attenuated | significantly attenuated | did not show any significant effect |  |  | significantly blocked increase in F4/80-immunoreactivity induced by MPTP; also recorded: attenuated |  | significantly attenuated | did not show any significant effect |  | attenuated | attenuated
